54 substances from patent US20240393292A1, “ALLERGY ANTIGEN AND EPITOPE THEREOF” (HOYU CO., LTD., priority 2019, published 2024) can be followed below.

This experiment concerns IgE antibodies from patients. Description: Wheat epitope mapping (2): overlapping 10-amino-acid peptide fragments shifted by one amino acid.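 For Rank of partial sequence as epitope binding to IgE antibody: key = sequence deemed particularly important within the common 15-residue sequence.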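 For epitope sequence binding to IgE antibody, rank (Key/Preferably/More preferably): key of grades: preferably = shorter partial sequence still acting as epitope; more preferably = sequence improving IgE binding; key = particularly important sequence.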 Type of experiment: binding, human. A digest of the protocol: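 Residual binding was banded as <30% none, 30–<50% poor, 50–<70% somewhat poor and ≥70% retained, relative to the parent overlapping sequence set to 100%. Values were chemiluminescent IgE signals from patient sera after subtracting secondary-antibody-only controls. The peptides were spot-synthesised 10-mers shifted by one amino acid.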

Setting [1] is: serum of patient P36 (WDEIA), sequence without X.
Setting [2] is: serum of patient P35 (WDEIA), sequence without X.
Where [3] appears, read: serum of patient P34 (WDEIA), sequence without X.
Where [4] appears, read: serum of patient P10 (WDEIA), sequence without X.
The mark [5] stands for this setting: serum of patient P7 (WDEIA), sequence without X.
Where [6] appears, read: serum of patient P24 (WDEIA), sequence without X.
The mark [7] stands for this setting: serum of patient P33 (WDEIA), sequence without X.
Setting [8] is: serum of patient G7 (adult, general immediate type allergy to wheat), sequence without X.
Setting [9] is: serum of patient P7 (WDEIA), partial sequence.
Setting [10] is: serum of patient P30 (WDEIA), partial sequence.
[11] abbreviates: serum of patient P21 (WDEIA), sequence without X.
[12] abbreviates: serum of patient P52 (child, general immediate type allergy to wheat), sequence without X.

“1356 (INVEN; REGION 1..5: note = epitope) [compound 1356]”: under setting [1], the “Epitope sequence binding to IgE antibody, rank of the sequence” value is “Preferably”.

For the substance “2587 (QLVQQLCC; REGION 1..8: note = epitope) [compound 2587]”, for the setting “serum of patient P32 (WDEIA), partial sequence”, the “Epitope sequence binding to IgE antibody, rank of the sequence” value is on record as “Preferably”. On to “1590 (QPFPQTQQPQ; REGION 1..10: note = epitope) [compound 1590]”, for which the “Rank of partial sequence as epitope binding to IgE antibody” value (from here on “Rank of partial sequence”) (serum of patient P50 (child, general immediate type allergy to wheat), sequence without X) is on record as “Preferably”. Turning to “1617 (VPFVPISG; REGION 1..8: note = epitope) [compound 1617]”, the “Rank of partial sequence” value (serum of patient P20 (WDEIA), sequence without X) was “Preferably”. In the case of “1555 (QVPLVQQQ; REGION 1..8: note = epitope) [compound 1555]”, the “Rank of partial sequence” value under setting [2] was “Preferably”. With “1872 (YTVRTLQRT; REGION 1..9: note = epitope) [compound 1872]”, the “epitope sequence binding to IgE antibody, rank (Key/Preferably/More preferably)” value (serum of patient P30 (WDEIA)) was “Preferably”. Consider “1351 (INVEN; REGION 1..5: note = epitope) [compound 1351]”, for which, under setting [3], the “Epitope sequence binding to IgE antibody, rank of the sequence” value is listed as “Preferably”. As to “1764 (KEVSSYLKKV; REGION 1..10: note = epitope) [compound 1764]”, where the note is “serum of patient P30 (WDEIA)”, the “epitope sequence binding to IgE antibody, rank (Key/Preferably/More preferably)” value was “Key”. With “2255 (LLRGIRNYRV; REGION 1..10: note = epitope) [compound 2255]”, the “Epitope sequence binding to IgE antibody, rank of the sequence (Key/Preferably/More preferably)” value (serum of patient P53 (child, general immediate type allergy to wheat), sequence without X) is “Preferably”. Regarding “1488 (YLQPQQPIS; REGION 1..9: note = epitope) [compound 1488]”, the “Rank of partial sequence” value under setting [2] was “Key”. As to “2277 (DKRVIERFEK; REGION 1..10: note = epitope) [compound 2277]”, the “Epitope sequence binding to IgE antibody, rank of the sequence (Key/Preferably/More preferably)” value under setting [4] is reported as “Key”. “1173 (QQQQFPPQQP; REGION 1..10: note = epitope) [compound 1173]”: the “Epitope sequence binding to IgE antibody, rank of the sequence” value under setting [5] was “Preferably”. On to “2423 (AWSGKTEN; REGION 1..8: note = epitope) [compound 2423]”, for which the “Epitope sequence binding to IgE antibody, rank of the sequence (Key/Preferably/More preferably)” value (serum of patient P12 (WDEIA), sequence without X) is reported as “More preferably”. As to “1311 (NVEN; REGION 1..4: note = epitope) [compound 1311]”, the “Epitope sequence binding to IgE antibody, rank of the sequence” value under setting [4] was “Key”. Regarding “1239 (QQQPIQQQP; REGION 1..9: note = epitope) [compound 1239]”, under setting [6], the “Epitope sequence binding to IgE antibody, rank of the sequence” value is “Preferably”. “1801 (LEALPKFLKN; REGION 1..10: note = epitope) [compound 1801]”: under “serum of patient P17 (WDEIA)”, the “epitope sequence binding to IgE antibody, rank (Key/Preferably/More preferably)” value was “Key”. Regarding “1734 (KEAANFT; REGION 1..7: note = epitope) [compound 1734]”, for the setting “serum of patient P56 (child, general immediate type allergy to wheat)”, the “epitope sequence binding to IgE antibody, rank (Key/Preferably/More preferably)” value was “Preferably”. Turning to “1344 (INVEN; REGION 1..5: note = epitope) [compound 1344]”, the “Epitope sequence binding to IgE antibody, rank of the sequence” value under setting [7] is “Preferably”. Take “1503 (QPISQQQA; REGION 1..8: note = epitope) [compound 1503]”: under setting [8], the “Rank of partial sequence” value is given as “Preferably”. Regarding “1524 (QVPLVQQQQ; REGION 1..9: note = epitope) [compound 1524]”, the “Rank of partial sequence” value under setting [4] was “More preferably”. For “2497 (QVSF; REGION 1..4: note = epitope) [compound 2497]”, under setting [9], the “Epitope sequence binding to IgE antibody, rank of the sequence” value is reported as “Key”. As for “1788 (LKKVGYNP; REGION 1..8: note = epitope) [compound 1788]”, the “epitope sequence binding to IgE antibody, rank (Key/Preferably/More preferably)” value (serum of patient G9 (adult, general immediate type allergy to wheat)) was “Key”. For “2401 (VTEIV; REGION 1..5: note = epitope) [compound 2401]”, the “Epitope sequence binding to IgE antibody, rank of the sequence (Key/Preferably/More preferably)” value under setting [1] was “Preferably”. Turning to “1792 (SGKELE; REGION 1..6: note = epitope) [compound 1792]”, under “serum of patient P8 (WDEIA)”, the “epitope sequence binding to IgE antibody, rank (Key/Preferably/More preferably)” value is recorded as “Key”.

Turning to “2738 (VPVGR; REGION 1..5: note = epitope) [compound 2738]”, under setting [10], the “Epitope sequence binding to IgE antibody, rank of the sequence” value is “Key”. Turning to “1414 (YLQPQQPISQ; REGION 1..10: note = epitope) [compound 1414]”, the “Epitope sequence binding to IgE antibody, rank of the sequence” value (serum of patient P4 (WDEIA), sequence without X) was “Preferably”. For “1502 (LQPQQP; REGION 1..6: note = epitope) [compound 1502]”, the “Rank of partial sequence” value under setting [8] is listed as “Key”. On to “1841 (YTVRTLQ; REGION 1..7: note = epitope) [compound 1841]”, for which the “epitope sequence binding to IgE antibody, rank (Key/Preferably/More preferably)” value (serum of patient P8 (WDEIA)) is given as “Preferably”.

“2233 (IRNYRVAI; REGION 1..8: note = epitope) [compound 2233]”: the “Epitope sequence binding to IgE antibody, rank of the sequence (Key/Preferably/More preferably)” value (serum of patient P29 (WDEIA), sequence without X) is “Preferably”. Consider “2718 (GIGTVPVGRV; REGION 1..10: note = epitope) [compound 2718]”, for which the “Epitope sequence binding to IgE antibody, rank of the sequence” value (serum of patient P18 (WDEIA), partial sequence) is reported as “Key”. In the case of “1619 (FVPISG; REGION 1..6: note = epitope) [compound 1619]”, the “Rank of partial sequence” value under setting [11] was “Key”. As for “1861 (TVRTLQRT; REGION 1..8: note = epitope) [compound 1861]”, for the setting “serum of patient P24 (WDEIA)”, the “epitope sequence binding to IgE antibody, rank (Key/Preferably/More preferably)” value is reported as “Preferably”. Turning to “2653 (EAAE; REGION 1..4: note = epitope) [compound 2653]”, the “Epitope sequence binding to IgE antibody, rank of the sequence” value (serum of patient P31 (WDEIA), partial sequence) was “Key”. “2328 (IIYSI; REGION 1..5: note = epitope) [compound 2328]”: the “Epitope sequence binding to IgE antibody, rank of the sequence (Key/Preferably/More preferably)” value under setting [3] was “Key”. As for “1304 (NVEN; REGION 1..4: note = epitope) [compound 1304]”, the “Epitope sequence binding to IgE antibody, rank of the sequence” value (serum of patient P3 (WDEIA), sequence without X) is “Key”. On to “1798 (EALPKFLKN; REGION 1..9: note = epitope) [compound 1798]”, for which, under “serum of patient P15 (WDEIA)”, the “epitope sequence binding to IgE antibody, rank (Key/Preferably/More preferably)” value is reported as “Preferably”. As for “1249 (QQPIQQQP; REGION 1..8: note = epitope) [compound 1249]”, the “Epitope sequence binding to IgE antibody, rank of the sequence” value under setting [7] was “Key”. Take “1332 (SINVEN; REGION 1..6: note = epitope) [compound 1332]”: for the setting “serum of patient P22 (WDEIA), sequence without X”, the “Epitope sequence binding to IgE antibody, rank of the sequence” value is reported as “Preferably”.

For “1375 (PWQQQPL; REGION 1..7: note = epitope) [compound 1375]”, the “Epitope sequence binding to IgE antibody, rank of the sequence” value under setting [5] is “Key”. Consider “2411 (TEIVL; REGION 1..5: note = epitope) [compound 2411]”, for which, under setting [12], the “Epitope sequence binding to IgE antibody, rank of the sequence (Key/Preferably/More preferably)” value was “Preferably”.

Take “2689 (YKGPTL; REGION 1..6: note = epitope) [compound 2689]”: the “Epitope sequence binding to IgE antibody, rank of the sequence” value under setting [10] was “Key”. Take “2254 (NYRV; REGION 1..4: note = epitope) [compound 2254]”: the “Epitope sequence binding to IgE antibody, rank of the sequence (Key/Preferably/More preferably)” value under setting [12] is listed as “Key”. “1489 (QQPISQQQAQ; REGION 1..10: note = epitope) [compound 1489]”: the “Rank of partial sequence” value under setting [2] is on record as “Preferably”. As for “1623 (YNPD; REGION 1..4: note = epitope) [compound 1623]”, under “serum of patient P25 (WDEIA), sequence without X”, the “Rank of partial sequence” value was “Key”.

For “1176 (QQFPPQQ; REGION 1..7: note = epitope) [compound 1176]”, where the note is “serum of patient P8 (WDEIA), sequence without X”, the “Epitope sequence binding to IgE antibody, rank of the sequence” value is listed as “Preferably”.

As to “2626 (LSKRV; REGION 1..5: note = epitope) [compound 2626]”, the “Epitope sequence binding to IgE antibody, rank of the sequence” value (serum of patient G3 (adult, general immediate type allergy to wheat), partial sequence) was “Key”.

As to “1951 (QFPGQQQ; REGION 1..7: note = epitope) [compound 1951]”, where the note is “serum of patient P24 (WDEIA)”, the “epitope sequence binding to IgE antibody, rank (Key/Preferably/More preferably)” value is on record as “Preferably”. Turning to “1767 (KKVGYNP; REGION 1..7: note = epitope) [compound 1767]”, the “epitope sequence binding to IgE antibody, rank (Key/Preferably/More preferably)” value (serum of patient P33 (WDEIA)) was “Key”. As to “1419 (YLQPQQPIS; REGION 1..9: note = epitope) [compound 1419]”, where the note is “serum of patient P9 (WDEIA), sequence without X”, the “Epitope sequence binding to IgE antibody, rank of the sequence” value was “Key”. Take “2279 (LGGIDK; REGION 1..6: note = epitope) [compound 2279]”: the “Epitope sequence binding to IgE antibody, rank of the sequence (Key/Preferably/More preferably)” value (serum of patient P14 (WDEIA), sequence without X) was “Key”.

For “2634 (EAAE; REGION 1..4: note = epitope) [compound 2634]”, the “Epitope sequence binding to IgE antibody, rank of the sequence” value under setting [9] is given as “Key”.

“1722 (KEAANFT; REGION 1..7: note = epitope) [compound 1722]”: where the note is “serum of patient P50 (child, general immediate type allergy to wheat)”, the “epitope sequence binding to IgE antibody, rank (Key/Preferably/More preferably)” value was “Preferably”. For the substance “2362 (VTEIV; REGION 1..5: note = epitope) [compound 2362]”, the “Epitope sequence binding to IgE antibody, rank of the sequence (Key/Preferably/More preferably)” value under setting [11] is “Key”. For “1459 (YLQPQQPISQ; REGION 1..10: note = epitope) [compound 1459]”, the “Rank of partial sequence” value under setting [6] is “Further preferably”.
